The text below walks through data of patent US8779157B2, “MGLUR4 allosteric potentiators, compositions, and methods of treating neurological dysfunction” (Vanderbilt University, priority 2009, dated 2014).

Molecules are shown by their SMILES.

In the assay the target is mGluR4 (UniProt Q14833). Kind of assay: mGluR4 potentiation assay (fluorescence, Ca2+ or thallium/GIRK readout; EC20 agonist). The assay is classed as cell-based, human / rat. The note with it: half maximal effective concentration for mGluR4 potentiation; species of receptor not given. As to the method: The disclosed compounds and compositions can be evaluated for their ability to act as a potentiator of metabotropic glutamate receptor activity, in particular mGluR4 activity, by any suitable known methodology known in the art. For example, Chinese Hamster Ovary (CHO) cells transfected with human mGluR4 or HEK cells co-transfected with rat mGluR4 and the G-protein regulated Inwardly Rectifying Potassium channel (GIRK) were plated in clear bottom assay plates for assay in a Hamamatsu FDSS Fluorometric Plate Reader. The cells were loaded with either a Ca2+-sensitive fluorescent dye or the thallium responsive dye and the plates were washed and placed into a suitable kinetic plate reader. For human mGluR4 assays, a fluorescence baseline was established for 3-5 seconds, the disclosed compounds were then added to the cells, and the response in cells was measured. Approximately two and a half minutes later, a concentration of mGluR4 orthosteric agonist (e.g. glutamate or L-AP4) eliciting approximately 20% (EC20) of the maximal agonist response was added to the cells, and the response was measured. Two minutes later, a concentration of mGluR4 agonist (e.g. glutamate or L-AP4) eliciting 80% (EC80) of the maximal agonist response was added to the cells, and the response was measured. For rat mGluR4/GIRK experiments, a baseline was established for approximately five seconds, disclosed compounds were added, and either an EC20 or EC80 concentration of agonist was added approximately two and one half minutes later. Potentiation of the agonist response of mGluR4 by the disclosed compounds was observed as an increase in response to the EC20 concentration of agonist in the presence of compound compared to the response to agonist in the absence of compound. Similarly, antagonism of the agonist response of mGluR4 by the disclosed compounds was observed as a decrease in response to the EC80 concentration of agonist in the presence of compound compared to the response to agonist in the absence of compound.
The above described assay operated in two modes. In the first mode, a range of concentrations of the disclosed compounds are added to cells, followed by a single fixed concentration of agonist. If the compound acts as a potentiatior, an EC50 value for potentiation and a maximum extent of potentiation by the compound at this concentration of agonist is determined by non-linear curve fitting. If the compound acts as a noncompetitive antagonist, an IC50 value is determined by non-linear curve fitting. In the second mode, several fixed concentrations of the disclosed compounds are added to various wells on a plate, followed by a range in concentrations of agonist for each concentration of disclosed compound. The EC50 values for the agonist at each concentration of compound are determined by non-linear curve fitting. A decrease in the EC50 value of the agonist with increasing concentrations of the sample compound (a leftward shift of the agonist concentration-response curve) is an indication of the degree of mGluR4 potentiation at a given concentration of the sample compound. A decrease in the maximal response of the agonist with increasing concentrations of the sample compounds, with or without a rightward shift in agonist potency, is an indication of the degree of noncompetitive antagonism at mGluR4. The second mode also indicates whether the sample compounds also affect the maximum response to mGluR4 to agonists.

Consider `O=C(Nc1ccc(N2C(=O)C3COCCN3C2=S)c(Cl)c1)c1cccc(Cl)n1` (centres unmarked) [Example 1.3.32, 6-Chloro N-(3-chloro-4-(1-oxo-3-thioxodihydro-1H-imidazo[5,1-c][1,4]oxazin-2(3H,8H, 8aH)-yl)phenyl)picolinamide], for which the EC50 came out at 1490 nM. For `O=C(Nc1ccc(N2C(=O)C3CCCCN3C2=S)c(Cl)c1)c1cscn1` (centres unmarked) [Example 1.3.80, N-(3-chloro-4-(1-oxo-3-thioxohexahydroimidazo[1,5-a]pyridin-2(3H)-yl)phenyl)thiazole-4-carboxamide] the value was 1970 nM. As for `CC12CCCCN1C(=S)N(c1ccc(NC(=O)c3cscn3)cc1Cl)C2=O` (centres unmarked) [Example 1.3.95, N-(3-chloro-4-(8a-methyl-1-oxo-3-thioxohexahydroimidazo[1,5-a]pyridin-2(3H)-yl)phenyl)thiazole-4-carboxamide], the figure is 1050 nM; as for `O=C(Nc1ccc(N2C(=O)C3COCCN3C2=S)c(Cl)c1)c1ccc(Cl)o1` (centres unmarked) [Example 1.3.37, 5-Chloro-N-(3-chloro-4-(1-oxo-3-thioxodihydro-1H-imidazo[5,1-c][1,4]oxazin-2(3H, 8H,8aH)-yl)phenyl)-furan-2-carboxamide], 5050 nM; as for `CC1(C)NC(=O)N(c2ccc(NC(=O)c3ccccn3)cc2Cl)C1=O` [Example 1.3.18, N-(3-chloro-4-(4,4-dimethyl-2,5-dioxoimidazolidin-1-yl)phenyl)picolinamide], 4210 nM.

On to `O=C(Nc1ccc(N2C(=O)NC3(CCCCCC3)C2=O)c(Cl)c1)c1ccccn1` [Example 1.3.15, N-(3-chloro-4-(2,4-dioxo-1,3-diazaspiro[4.6]undecan-3-yl)phenyl)picolinamide], for which the EC50 came to 222 nM. As for `O=C(Nc1ccc(N2C(=O)C3COCCN3C2=O)c(Cl)c1)c1cccs1` (centres unmarked) [Example 1.3.24, N-(3-Chloro-4-(1,3-dioxodihydro-1H-imidazo[5,1-c][1,4]oxazin-2(3H,8H,8aH)-yl)phenyl)thiophene-2-carboxamide], the figure is 9500 nM; as for `CC12CCCCN1C(=S)N(c1ccc(NC(=O)c3cccnn3)cc1Cl)C2=O` (centres unmarked) [Example 1.3.100, N-(3-chloro-4-(8a-methyl-1-oxo-3-thioxohexahydroimidazo[1,5-a]pyridin-2(3H)-yl)phenyl)pyridazine-3-carboxamide], 1900 nM. In the case of `CC12CCCCN1C(=O)N(c1ccc(NC(=O)c3ncccc3F)cc1Cl)C2=O` (centres unmarked) [Example 1.3.91, N-(3-chloro-4-(8a-methyl-1,3-dioxohexahydroimidazo[1,5-a]pyridin-2(3H)-yl)phenyl)-3-fluoropicolinamide], the concentration for a half-maximal effect (EC50) was determined as 3790 nM.

As to `O=C(Nc1ccc(N2C(=O)C3CCCN3C2=O)c(Cl)c1)c1ccccn1` (centres unmarked) [Example 1.3.9, N-(3-chloro-4-(1,3-dioxo-1H-pyrrolo[1,2-c]imidazol-2(3H,5H,6H,7H,7aH)-yl)phenyl)picolinamide], the EC50 was 2110 nM.

In the case of `CC(C)[C@]1(C)NC(=O)N(c2ccc(NC(=O)c3ccccn3)cc2Cl)C1=O` [Example 1.3.59, (S)-N-(3-chloro-4-(4-isopropyl-4-methyl-2,5-dioxoimidazolidin-1-yl)phenyl)picolinamide], the EC50 amounted to 1500 nM. As for `O=C(Nc1ccc(N2C(=O)C3CCCCN3C2=O)c(Cl)c1)c1ccc(Cl)o1` (centres unmarked) [Example 1.3.8, 5-Chloro-N-(3-chloro-4-(1,3-dioxotetrahydroimidazo[1,5-a]pyridin-2(1H,3H,5H)-yl)phenyl)furan-2-carboxamide], the figure is 6200 nM; as for `CC12CCCCN1C(=S)N(c1ccc(NC(=O)c3nccs3)cc1Cl)C2=O` (centres unmarked) [Example 1.3.94, N-(3-chloro-4-(8a-methyl-1-oxo-3-thioxohexahydroimidazo[1,5-a]pyridin-2(3H)-yl)phenyl)thiazole-2-carboxamide], 761 nM; as for `COc1cc(NC(=O)c2ccccn2)ccc1N1C(=O)C2CCCCN2C1=O` (centres unmarked) [Example 1.3.1, N-(4-(1,3-dioxotetrahydroimidazo[1,5-a]pyridin-2(1H,3H,5H)-yl)-3-methoxyphenyl)picolinamide], 2700 nM.
